Laboratory results: publication PMC7515946, “Targeting of Perforin Inhibitor into the Brain Parenchyma Via a Prodrug Approach Can Decrease Oxidative Stress and Neuroinflammation and Improve Cell Survival” (Molecular Neurobiology, 2020)
pIC50: −log10 of the molar value. Several values for one entry are separate records, joined by “and”; a condition that tells them apart may be missing. Identical values can stand only once. Entries after “also recorded” stand apart in the source; their conditions may differ.

What was measured:
[1] = design: method as in PMID 26705152; conditions: cited from earlier work
[2] = target: T1, acetylcholinesterase (AChE) (Mus musculus, UniProt P21836); assay: biochemical; conditions: for pIC50: mouse brain S9 fraction, acetylthiocholine 1 mM, 30 min endpoint
T1 construct: mouse brain S9 fraction was prepared by homogenizing freshly collected mouse brain; from tissue; host or cells: mouse brain S9 fraction (9000 x g supernatant)
T1 sequence (P21836 32-614): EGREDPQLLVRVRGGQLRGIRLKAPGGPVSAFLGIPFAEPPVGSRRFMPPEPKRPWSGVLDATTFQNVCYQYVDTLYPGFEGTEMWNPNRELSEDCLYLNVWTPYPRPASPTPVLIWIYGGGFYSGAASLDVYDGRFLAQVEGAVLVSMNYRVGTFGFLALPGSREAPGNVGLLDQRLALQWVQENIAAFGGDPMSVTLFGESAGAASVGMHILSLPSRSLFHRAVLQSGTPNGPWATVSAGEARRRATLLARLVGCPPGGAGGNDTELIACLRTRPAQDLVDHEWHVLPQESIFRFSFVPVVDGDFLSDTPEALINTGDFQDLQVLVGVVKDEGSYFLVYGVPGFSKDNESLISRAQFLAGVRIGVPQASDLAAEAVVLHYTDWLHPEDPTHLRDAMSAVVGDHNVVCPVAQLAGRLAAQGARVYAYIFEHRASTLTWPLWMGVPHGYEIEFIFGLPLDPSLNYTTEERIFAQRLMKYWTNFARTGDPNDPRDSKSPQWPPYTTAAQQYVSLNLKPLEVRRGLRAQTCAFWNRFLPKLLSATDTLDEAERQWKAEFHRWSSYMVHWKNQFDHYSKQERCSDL
Description: (§1) Briefly, mouse brain S9 fraction was prepared by homogenizing freshly collected mouse brain with 50 mM Tris-buffered saline (TBS) (pH 7.4) (1:4 w/v), centrifuging the homogenate at 9000 × g for 20 min at 4 °C and collecting the supernatant. The supernatant was then diluted 1:10 with phosphate buffer (100 mM; pH 7.0) and mixed with Ellman’s reagent (DTNB; 1 mM) and studied compounds in DMSO (DMSO concentration was less than 0.5%) on a 96-well plate as 3 parallel assays.
According to the Hanes–Woolf plots, the ratio of initial substrate concentration to the reaction velocity ([S]/v) was plotted against the substrate concentration (μM).

[3] = target: T2, butyrylcholinesterase (BChE) (Mus musculus, UniProt Q03311); type: biochemical; conditions: mouse brain S9 fraction, butyrylthiocholine 1 mM, 30 min endpoint
T2 construct: mouse brain S9 fraction was prepared by homogenizing freshly collected mouse brain; from tissue; host or cells: mouse brain S9 fraction (9000 x g supernatant)
T2 sequence (Q03311 30-603): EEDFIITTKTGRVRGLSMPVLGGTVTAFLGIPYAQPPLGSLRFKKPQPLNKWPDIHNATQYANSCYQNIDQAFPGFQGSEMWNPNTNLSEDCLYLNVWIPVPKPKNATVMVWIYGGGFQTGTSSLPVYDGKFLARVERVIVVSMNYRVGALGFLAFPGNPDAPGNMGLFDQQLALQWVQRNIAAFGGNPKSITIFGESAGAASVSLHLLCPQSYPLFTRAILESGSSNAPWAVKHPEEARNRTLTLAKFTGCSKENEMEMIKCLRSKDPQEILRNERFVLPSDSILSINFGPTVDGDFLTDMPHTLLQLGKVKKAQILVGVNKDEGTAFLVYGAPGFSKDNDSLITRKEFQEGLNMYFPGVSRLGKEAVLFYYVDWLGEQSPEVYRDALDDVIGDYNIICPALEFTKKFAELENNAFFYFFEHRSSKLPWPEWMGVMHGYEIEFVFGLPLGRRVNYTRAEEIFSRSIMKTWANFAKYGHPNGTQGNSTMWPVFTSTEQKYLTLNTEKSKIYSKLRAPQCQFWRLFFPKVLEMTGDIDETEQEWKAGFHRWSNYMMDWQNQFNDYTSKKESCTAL
Description: as §1

[4] = design: method as in PMID 26705152; conditions: cited from earlier work; remark: listed apart in the source
LAT1 [5] = target: T3, LAT1 (Mus musculus, UniProt Q9Z127); assay: Ability to bind to LAT1: inhibition of [14C]-L-leucine uptake in astrocytes; type: cell-based; conditions: mouse primary astrocytes, 0.76 μM [14C]-L-leucine, 5 min, 37 °C
T3 construct: endogenous in cells; host or cells: mouse primary astrocytes (C57BL/6JOlaHsd), cortex and hippocampi
T3 sequence (Q9Z127 whole entry): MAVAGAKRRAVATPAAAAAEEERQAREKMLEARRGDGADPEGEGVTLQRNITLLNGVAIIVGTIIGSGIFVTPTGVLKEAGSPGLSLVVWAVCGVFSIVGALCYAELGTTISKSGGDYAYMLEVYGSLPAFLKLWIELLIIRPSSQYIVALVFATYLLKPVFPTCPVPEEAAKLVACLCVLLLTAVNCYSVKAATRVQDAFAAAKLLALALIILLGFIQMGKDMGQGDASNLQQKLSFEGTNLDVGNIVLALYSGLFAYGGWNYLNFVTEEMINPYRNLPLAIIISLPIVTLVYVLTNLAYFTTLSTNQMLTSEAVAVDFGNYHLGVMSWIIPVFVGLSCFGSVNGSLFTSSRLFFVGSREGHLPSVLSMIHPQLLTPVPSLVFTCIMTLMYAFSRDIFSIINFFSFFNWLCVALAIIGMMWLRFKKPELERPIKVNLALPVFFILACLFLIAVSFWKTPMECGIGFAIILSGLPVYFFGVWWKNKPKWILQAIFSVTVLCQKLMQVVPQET
T3 sequence (P10852 whole entry partner): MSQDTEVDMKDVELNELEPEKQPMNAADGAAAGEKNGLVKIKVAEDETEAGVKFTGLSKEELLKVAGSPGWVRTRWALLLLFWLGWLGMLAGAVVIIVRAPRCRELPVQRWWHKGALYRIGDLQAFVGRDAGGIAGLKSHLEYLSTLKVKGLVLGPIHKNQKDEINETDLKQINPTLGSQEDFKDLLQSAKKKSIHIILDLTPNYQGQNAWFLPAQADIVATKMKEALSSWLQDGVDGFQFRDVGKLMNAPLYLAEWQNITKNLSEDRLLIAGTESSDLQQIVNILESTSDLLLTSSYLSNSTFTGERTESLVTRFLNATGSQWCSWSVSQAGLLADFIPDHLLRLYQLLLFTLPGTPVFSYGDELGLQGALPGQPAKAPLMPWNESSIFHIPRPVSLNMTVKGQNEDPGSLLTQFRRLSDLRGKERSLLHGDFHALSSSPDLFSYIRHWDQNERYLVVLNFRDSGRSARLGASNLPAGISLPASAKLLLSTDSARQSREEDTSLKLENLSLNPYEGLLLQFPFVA
Description: For the transporter-binding studies, the astrocytes were seeded on 24-well plates with a density of 10 × 10^4 cells/well 3 days before the experiments. After removal of the culture medium, the cells were carefully washed with pre-warmed HBSS (Hank’s balanced salt solution) containing choline chloride (125 mM), KCl (4.8 mM), MgSO4 (1.2 mM), KH2PO4 (1.2 mM), CaCl2 (1.3 mM), glucose (5.6 mM), and HEPES (25 mM) adjusted to pH 7.4 with 1 M NaOH. The cells were pre-incubated with 500 μL of pre-warmed HBSS at 37 °C for 5 min before the experiments. To study the ability of studied compounds to inhibit the uptake of a known LAT1 substrate, the cells were incubated at 37 °C for 5 min with an uptake buffer (HBSS, 250 μL) containing 0.76 μM (0.25 mCi/mL or […]) of [^14C]-L-leucine (PerkinElmer, Waltham, MA, USA) and 0.1–1000 μM of studied compound (or HBSS as blank). After incubation, the uptake was stopped by adding 500 μL of ice-cold HBSS, and the cells were washed two times with ice-cold HBSS (2 × 500 μL). The cells were then lysed with 500 μL of NaOH (0.1 M) for 60 min and the lysate was mixed with 3.5 mL of Emulsifier-Safe cocktail (Ultima Gold, PerkinElmer, Waltham, MA, USA). The radioactivity in the cells was measured by liquid scintillation counting (MicroBeta^2 counter, PerkinElmer Waltham, MA, USA). Half of the maximum inhibitory concentration (IC50) values were calculated by nonlinear regression analysis (fitting the curve to log (concentration) vs. remaining normalized viability).

LAT1 [6] = system: LAT1; design: method as in PMID 31610281; conditions: human breast adenocarcinoma cells (MCF-7); read-out: IC50 of [14C]-L-leucine uptake (LAT1 binding) in MCF-7 cells; cited from earlier work
mouse primary astrocytes [7] = system: mouse primary astrocytes; design: method as in PMID 31492955; conditions: in the presence of a specific LAT1 inhibitor; cited from earlier work
[8] = design: method as in PMID 27266990; conditions: cited from earlier work
mouse primary astrocytes [9] = assay: Intracellular unbound concentrations in astrocytes (RED dialysis, Kp,uu,cell); type: in vitro ADME; conditions: below 500 nM concentrations
Description: The non-specific binding of compounds (100 μM) was determined in astrocyte homogenate by using the Rapid Equilibrium Dialysis (RED) device (Thermo Fisher Scientific, Inc., Waltham, MA, USA). Briefly, the astrocyte cell suspension (10 × 10^6 cells/mL) was homogenized with HBSS by the SoniPerp 150 Plus disintegrator (MSE Ltd., London, UK) (2 s × 3). The studied compound was mixed with 100 μL of cell homogenate and added to the reaction chamber. A 350-μL HBSS buffer was added to the buffer chamber. The dialysis plate was incubated at 37 °C for 4 h with shaking. Fifty microliters of samples were taken from the reaction and buffer chambers and equal size of the buffer or blank homogenate were added, respectively, to yield identical matrices. The proteins were precipitated by adding 100 μL of ice-cold ACN (including the selected internal standard; see above), and the supernatants were collected for LC-MS analysis (see above) after centrifugation at 12,000 × g for 10 min. The unbound drug fraction (fu,cell) was calculated by dividing concentration in the buffer chamber by concentration in the reaction chamber and taking into account the effect of homogenate dilution factor (D = 45 for 10 × 10^6 cells/mL cell suspension according to their weight of the cells) as described earlier.
The compound concentration ratios in astrocytes (Kp) was determined at 0.01–1.0 μM concentrations by comparing the cellular uptake amount (nmol) in cell lysates (0.1 M NaOH) per astrocyte cell volume (0.05810^−15 L/cell for 10 × 10^4 cells/well) to the concentrations (nM) detected from the surrounding buffer (HBSS) collected before cell lysing as described previously. The unbound drug concentration ratio (Kp,uu) was then calculated by multiplying the drug concentration ratio (Kp) by unbound drug fraction (fu,cell).

N[C@H](Cc1cccc(C(=O)OCc2ccc(-c3ccc(-c4ccc5c(c4)COC5=O)s3)cc2)c1)C(=O)O [PFI-PD]
Bioconversion half-life in rat liver S9 subcellular fraction [1]: approximately 55 min
Type of AChE inhibition ([2]; Hanes–Woolf plot): mixed-type
Vmax of AChE reaction in presence of inhibitor ([2]; mouse brain S9, acetylthiocholine, PFI-PD (12 μM), without inhibitor 2.21 ± 0.01): 2.17 nmol/min/mg protein and 2.17 ± 0.02 nmol/min/mg protein
pIC50 [2]: 5.10 and 5.09
BChE IC50 value [3]: No inhibition
Stability in human plasma [4]: completely stable
pIC50 (LAT1 [5]): 5.40 and 5.46
pIC50 (LAT1 [6]): 5.81
Inhibition of cellular uptake into primary astrocytes by a specific LAT1 inhibitor (mouse primary astrocytes [7]): over 70%
Brain Cmax ([8]; dose 23 μmol/kg): 0.12 nmol/g of tissue
Unbound brain Cmax,u ([8]; dose 23 μmol/kg): 0.002 nmol/g of tissue

O=C1OCc2cc(-c3ccc(-c4ccc(CO)cc4)s3)ccc21 [PFI]
pIC50 [2]: 4.92 and 4.91
BChE IC50 value [3]: No inhibition
IC50 in astrocytes (inhibition of [14C]-L-leucine uptake) (LAT1 [5]): did not exhibit any interaction with LAT1; also recorded: No inhibition
Amount of released PFI in the brain after the prodrug treatment ([8]; after PFI-PD 23 μmol/kg): 0.01 nmol/g of tissue
Brain levels of PFI after PFI dosing ([8]; dose 23 μmol/kg, LC-MS/MS): below the detection limit
Detection in astrocyte cell lysates (mouse primary astrocytes [9]): not detected
